# Laboratory results taken from patent US6479469B2, “Treatment of arthritis and compositions therefore” (priority 2000, dated 2002).
# Entries after “also recorded” stand apart in the source; their conditions may differ.
# Tests used:
# [1] = system: Bovine Articular Chondrocytes; test: Glycosaminoglycan synthesis by Bovine Articular Chondrocytes (35S incorporation); format: cell-based; details: 0.1 mM GlcNBu; 35S label 4 days; per well; control 82,000 CPM; FIG. 14
# Method: Bovine articular chondrocytes were grown to confluency in 35 mm wells and labelled with ^35S for 4 days in the presence of different concentrations of GlcNBu. The Glycosaminoglycans (GAG) were isolated from the medium and the radioactivity incorporated into the isolated GAG was determined
# With reference to FIG. 14, the results are expressed on a per well basis and represent the means and standard deviations from four replicate wells. […] The control (0 mM concentration of GlcNBu) is the first point on the left indicating 82,000 CPM and the lowest concentration of GlcNBu is 0.1 mM indicating 112,000 CPM.
# [2] = system: experimentally induced inflammatory arthritis in Lewis rats; test: Streptococcal cell wall induced inflammatory arthritis model, clinical assessment of hind legs; format: in vivo, rat; details: 18 days
# Text: The experimental arthritis was induced by injecting cell walls of streptococcal bateria intra-peritoneally into Lewis rats. The resulting arthritis leads to cartilage and bone destruction in the injected rat. This experimental model is considered to provide some of the most useful insights in the development of human inflammatory, destructive arthropathies.
# Method: Inflammatory arthritis was induced in Lewis strain rats by a single intra-peritoneal injection of the streptococcal wall pepti-polysaccharide antigen, as described in Brahn E. “Animal models of rheumatoid arthritis. Clues to etiology and treatment.” Clin Orthop. 1991 Apr; (265): 42-53. Review. Van den Broek M F, van Bruggen M C, Simpson S A, Severijnen A J, van de Putte L B, van den Berg W B. “Flare-up reaction of streptococcal cell wall induced arthritis in Lewis and F344 rats: the role of T lymphocytes.” Clin Exp Immunol. 1990 Feb; 79 (2): 297-306. Chen W., Jin W, Cook M, Weiner H L, Wahl S M. “Oral delivery of group A streptococcal cell walls augments circulating TGF-beta and suppresses streptococcal cell wall arthritis.” J Immunol. 1998 Dec. 1; 161 (11): 6297-304. On the same day as the injection, the rats had their drinking water supplemented either with 5 mg or 50 mg of GlcN or GlcNBu in 400 ml of water. There were three rats in each of the above groups. The rats drank the water containing the above compounds in an unrestricted fashion. The drinking water was replenished, when finished, so that the rats drank the same concentrations of the compounds throughout the experimental observation period. Each animal consumed approximately between 20-30 ml of water each day for each of the groups. After 18 days of experimental observation, the rats' hind legs were visually inspected for clinical assessment of the development of arthritis.
# chondrocytes (BAC) = test: BAC growth assay (chondrocyte cell proliferation, Coulter count); format: cell-based, bovine; details: for effect on cell growth: 0-6 mM, serum 20%, FIG. 10; for effect on cell growth / effect on the proliferation of chondrocytes: BAC subculture 6; for effect on the proliferation of chondrocytes: 1 mg/ml, glucose 0.5 mg/ml, TGF-β 10 μg/ml, serum 10%, FIG. 8
# Method: Cartilage slices were removed aseptically from bovine knee joint and digested with collagenase to obtain single cell chondrocytes. Both primary cultures and subcultures were established by procedures described previously (Chan C. and Anastassiades T., Biochem Cell Biol 74:233-240, 1996; Howard S. and Anastassiades T., J Rheumatol 20:2083-2094, 1993).For the growth assays, cells were seeded at 15,000 cells/well and 33,000 cells/well for the 24 and 6 well plates, respectively, in glucose free Dulbecco's modified Eagle's culture medium, base which was supplemented with glucose (1 mg/ml) and serum (10%). These cells were incubated in a humidified atmosphere of 95% air and 5% carbon dioxide at 37° C. On the following day, the medium was changed to fresh medium containing test materials of interest. The cells were harvested at time intervals and cell number determined using Coulter counter (Coulter Electronics Inc. Florida, USA). Results are expressed as the means of three replicate wells and each well was counted twice. The data are presented as mean ± SEM.
# Initial studies examined the effect of 1 mg/ml of GlcN, GlcNac, GlcNpr and GlcNbu on the proliferation of chondrocytes (BAC subculture 6) maintained in medium supplemented with glucose (0.5 mg/ml), TGF-β (10 μg/ml) and serum (10%). […] The cells barely thrive at serum concentrations lower than 10% (data not shown).
# Further experiments were carried out to determine whether the growth stimulation could be due to butyrate group or a mechanism solely dependent on GlcNbu. In this case, chondrocytes (BAC subculture 6) were maintained in culture in the presence of glucose (1 mg/ml), serum (20%) and various concentrations (0-6 mM) of sodium butyrate, GlcNbu and GlcN. […] Therefore, the growth stimulation observed is due to GlcNbu. The effect of GlcNbu at varying glucose medium concentrations (0-0.5 mg/ml) were evaluated using early and late subcultured chondrocytes.
# dog with hip dysplasia = test: Dog Study-2, dog with hip dysplasia, daily journal and video record; format: in vivo; details: 500 mg per day on food, one week
# Method: 1 Week administration to arthritic/dysplastic dogs @ 500 mg set daily dose. Daily Journal and Video record was kept as described under Dog Study-1.
# The subject was a 16-year-old female labrador crossbreed which had hip dysplasia evident in both hind limbs due to either age or an injury sustained at the age of 9 years.
# Phase 1 The MGD was administered at 500 mg per day for a period of one week in a solution poured onto food.
# [3] = system: dog with osteoarthritis due to anterior cruciate ligament injury; test: Dog Study-1, osteoarthritic dog, daily journal and video record; format: in vivo
# Method: 1 Week administration to arthritic/dysplastic dogs @500 mg set daily dose. A Daily Journal and Video record was kept.
# The subject was a 9-year-old female collie crossbreed which had osteoarthritis due to a prior left anterior cruciate ligament injury (a previous tear now repaired). […] The animal is currently medicated with glucosamine at 500 mg per day.
# For both Phase 1 and Phase 2 a video diary of a few minutes of two or three of the animal's exercise periods and a daily journal of casual observations was kept.
# [4] = humans, cited from earlier work
# bovine chondrocytes = details: in vitro; cited from earlier work
# [5] = system: mucopolysaccharides (glycosaminoglycans); details: Biochem. Pharmacol. (1973) 22:3018; cited from earlier work
Compound,clinical assessment of arthritis in hind legs ([2]; 5 mg in 400 ml drinking water),clinical assessment of arthritis in hind legs ([2]; 50 mg in 400 ml drinking water),effect on cell growth (chondrocytes (BAC); glucose 1 mg/ml),effect on the proliferation of chondrocytes (chondrocytes (BAC)),owner-observed mobility / behaviour (dog with hip dysplasia),further results
"CCCC(=O)N[C@H]1C(O)O[C@H](CO)[C@@H](O)[C@@H]1O (stereo partly drawn) [GlcNbu, N-Butyryl-D-glucosamine (2-n-Butanamido-2-deoxy-D-glucopyranose)]",normal hind lower legs and no clinical evidence of arthritis,minimal swelling in the right lower leg and probably a normal left lower leg,increased cell growth,significantly stimulated cell growth,a period of improvement,"radioactivity incorporated into the GAG [1]: 112,000 CPM; cell growth at various serum concentrations (chondrocytes (BAC); GlcNbu 0.4-10 mM, glucose 1 mg/ml, 10% vs 20% serum, FIG. 9): more increase in cell growth at 20% than 10% serum; stimulation of cell growth at varying glucose medium concentrations (chondrocytes (BAC); glucose 0-0.5 mg/ml, early and late subcultured chondrocytes, FIGS. 11 and 12): higher in the absence of glucose or very low glucose concentration"
N-Butyryl-D-glucosamine (2-n-Butanamido-2-deoxy-D-glucopyranose) [GlcNbu],–,–,–,–,isolated examples of improvement,"tolerability ([3]; 500 mg per day on food, one week): tolerated at least at the same level as glucosamine; adverse reactions ([3]; 500 mg per day, one week): no adverse reactions were observed; protective effects (mobility/stiffness) compared to glucosamine ([3]; Phase 1, 500 mg per day, one week, listed as MGD): at least as good as glucosamine; also recorded: no appreciable difference from baseline; observation after withdrawal ([3]; Phase 2, Day 7 after MGD discontinued, listed as MGD): recurrence of a slight limp; also recorded: much stiffer gait and a slight limp"
"CC(=O)N[C@H]1C(O)O[C@H](CO)[C@@H](O)[C@@H]1O (stereo partly drawn) [GlcNac, N-acetylglucosamine, reference compound]",–,–,–,much reduced effect on cell growth,–,half-life compared to glucosamine ([4]; Clin. Ther. (1996) 18:1184): longer half-life
"N[C@@H](C=O)[C@@H](O)[C@H](O)[C@H](O)CO [GlcN, 2-amino-2-deoxy-D-glucose, reference compound]",well-developed arthritis with swelling and redness in both of the hind lower legs,well-developed arthritis with swelling and redness in the right lower leg and less so in the left lower leg,decreased cell growth,inhibited cell growth compared to control,–,growth or survival of chondrocytes (bovine chondrocytes): does not support growth or even survival of chondrocytes; serum levels after oral or IV administration ([4]; very large doses): serum levels cannot be detected
"CCCC(=O)[O-].[Na+] [sodium butyrate, reference compound]",–,–,decreased cell growth,–,–,–
"CCC(=O)N[C@H]1C(O)O[C@H](CO)[C@@H](O)[C@@H]1O (stereo partly drawn) [GlcNpr, N-propionylglucosamine]",–,–,–,much reduced effect on cell growth,–,incorporation of labeled glucosamine into mucopolysaccharides [5]: inhibits the incorporation of labeled glucosamine into mucopolysaccharides
